Data on 3 compounds can be found in ChEMBL document CHEMBL1122778, “A mechanism for the addition of multiple moles of glutamate by folylpolyglutamate synthetase” (J Med Chem, 1984).

SMILES strings stand for the structures.

The target of test [1] is T1, Folylpolyglutamate synthase, mitochondrial (Mus musculus) (UniProt P48760).
T1 sequence (whole entry): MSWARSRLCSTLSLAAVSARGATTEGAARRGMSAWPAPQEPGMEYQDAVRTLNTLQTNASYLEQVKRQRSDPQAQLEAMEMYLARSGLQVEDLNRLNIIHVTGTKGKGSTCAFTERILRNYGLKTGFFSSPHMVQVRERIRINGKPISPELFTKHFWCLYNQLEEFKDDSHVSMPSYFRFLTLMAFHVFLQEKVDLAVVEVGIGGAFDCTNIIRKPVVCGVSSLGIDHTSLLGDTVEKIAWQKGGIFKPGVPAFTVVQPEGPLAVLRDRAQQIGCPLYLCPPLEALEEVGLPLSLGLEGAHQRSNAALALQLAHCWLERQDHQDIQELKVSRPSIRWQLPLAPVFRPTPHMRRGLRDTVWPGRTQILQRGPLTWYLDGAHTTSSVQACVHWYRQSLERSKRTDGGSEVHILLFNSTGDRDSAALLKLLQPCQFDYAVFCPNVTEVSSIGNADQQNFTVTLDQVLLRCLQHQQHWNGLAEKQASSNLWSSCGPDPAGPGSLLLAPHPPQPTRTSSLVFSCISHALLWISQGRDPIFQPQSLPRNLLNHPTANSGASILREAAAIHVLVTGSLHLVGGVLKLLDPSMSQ
Nature of the test: Concentration required go get half the maximal reaction with Folyl-polyglutamate synthase.

The target of test [2] is T1, Folylpolyglutamate synthase, mitochondrial (Mus musculus). Nature of the test: Compound was evaluated for reaction rate of compound in mouse liver Folyl-polyglutamate synthase for 1 hr at a conc of 500 uM ([3H]L-glutamate incorporated).
Test [3] has the same target. Nature of the test: Compound was evaluated for reaction rate of compound in mouse liver Folyl-polyglutamate synthase ([3H]L-glutamate incorporated).

On to `CN(Cc1cnc2nc(N)nc(N)c2n1)c1ccc(C(=O)NC(CCC(=O)NC(CCC(=O)O)C(=O)O)C(=O)O)cc1` (stereo not given), for which the Concentration in test [1] is 163 µM. This compound yielded a Reaction rate in test [2] of 0.7 nM/h.

Take `CN(Cc1cnc2nc(N)nc(N)c2n1)c1ccc(C(=O)N[C@@H](CCC(=O)O)C(=O)O)cc1`: the Reaction rate in test [3] was 1.71 nM/h. The compound further came in with a Concentration in test [1] of 47 µM. The compound `CN(Cc1cnc2nc(N)nc(N)c2n1)c1ccc(C(=O)NC(CCC(=O)NC(CCC(=O)O)C(=O)O)C(=O)O)cc1.CN(Cc1cnc2nc(N)nc(N)c2n1)c1ccc(C(=O)NC(CCC(=O)O)C(=O)O)cc1` (stereo not given) came in with a Reaction rate in test [3] of 1.23 nM/h.
